What all share (type): cell-based
The subject of experiment [1] is oxidative MTHFD2 flux in SKOV3 cells. Put plainly: Oxidative MTHFD2 flux by 4-[2H]-glucose tracing. As to conditions: SKOV3, increasing rotenone doses (0-1,000 nM), 8 h. As to the method:
(§1) FIG. 4 Dynamic flux analysis with parallel tracers to quantify oxidative MTHFD2 flux. a, Oxidative MTHFD2 flux and percentage decrease in OCRfollowing MTHFD2 inhibition in SKOV3 cells treated with rotenone (0, 31, 62, 125, 250, 500 or 1,000 nM) and MTHFD2 inhibitor (0 or 60 μM). Oxidative MTHFD2 flux is proportional to [2H1]-serine/[2H1]-NADH enrichment in cells cultured with 4-[2H]-glucose for 8 h. Percentage decrease in OCR is estimated in SKOV3 cells treated with 60 μM MTHFD2i compared with 0 μM MTHFD2i. Oxidative flux data are combined from two independent experiments (n=4), with mean±s.d. estimated using error propagation. […] (n=6) and analysed using two-tailed Welch's t-test. e, Ratio of [2H2]-serine/[2H]-NADH enrichment in SKOV3 and OVCAR8 cells at 2 h after combined tracer introduction of 4-[2H]-glucose and [2H]-formate, representing the normalized contribution of [2H]-NADH to [2H2]-serine via oxidative MTHFD2 flux. Data combined from two independent experiments (n=6), with mean±s.d. estimated using error propagation and analysed by two-tailed Welch's t-test. f, [2H2]-serine enrichment in SKOV3 cells expressing shScramble or shUQCR11 at 2 h after combined tracer introduction of 4-[2H]-glucose and [2H]-formate. […] (n=5) and analysed using one-tailed non-parametric Mann-Whitney test. […]

Experiment [2] concerns reductive MTHFD2 flux in SKOV3 cells. Put plainly: Reductive MTHFD2 flux by 2,3,3-[2H]-serine tracing. The conditions noted are these: SKOV3, increasing rotenone doses, 8 h. The protocol: as §1
Another experiment concerns SKOV3 cells. Put plainly: Oxygen consumption rate (OCR) measurement. As to conditions: SKOV3, increasing rotenone concentrations. As to the method: FIG. 4 Dynamic flux analysis with parallel tracers to quantify oxidative MTHFD2 flux. a, Oxidative MTHFD2 flux and percentage decrease in OCRfollowing MTHFD2 inhibition in SKOV3 cells treated with rotenone (0, 31, 62, 125, 250, 500 or 1,000 nM) and MTHFD2 inhibitor (0 or 60 μM). Oxidative MTHFD2 flux is proportional to [2H1]-serine/[2H1]-NADH enrichment in cells cultured with 4-[2H]-glucose for 8 h. Percentage decrease in OCR is estimated in SKOV3 cells treated with 60 μM MTHFD2i compared with 0 μM MTHFD2i. Oxidative flux data are combined from two independent experiments (n=4), with mean±s.d. estimated using error propagation. OCR data are representative of two independent experiments and presented as mean±s.d. estimated using error propagation (n=5). b, Reductive MTHFD2 flux and basal OCR in SKOV3 cells treated with rotenone (0, 31, 62, 125, 250 or 1,000 nM) and MTHFD2 inhibitor (0 or 60 μM). Reductive MTHFD2 flux is proportional to [2H1]-NADH in cells cultured with 2,3,3-[2H]-serine for 8 h. OCR data are representative of two independent experiments and presented as mean±s.e.m. (n=5). c, Schematic of combination tracer experiment with 4-[2H]-glucose and [2H]-formate to track oxidative MTHFD2 flux. […] (n=6) and analysed using two-tailed Welch's t-test. e, Ratio of [2H2]-serine/[2H]-NADH enrichment in SKOV3 and OVCAR8 cells at 2 h after combined tracer introduction of 4-[2H]-glucose and [2H]-formate, representing the normalized contribution of [2H]-NADH to [2H2]-serine via oxidative MTHFD2 flux. Data combined from two independent experiments (n=6), with mean±s.d. estimated using error propagation and analysed by two-tailed Welch's t-test. f, [2H2]-serine enrichment in SKOV3 cells expressing shScramble or shUQCR11 at 2 h after combined tracer introduction of 4-[2H]-glucose and [2H]-formate. […] (n=5) and analysed using one-tailed non-parametric Mann-Whitney test.
OCR measurement. […] Live OCR was measured for up to 16 h after attaching the lid.
Mito stress test with the Seahorse analyser. Mitochondrial OCR was measured using a Seahorse XFe96 analyser (Agilent Technologies). […]

For experiment [3], the system named is parental ovarian cancer lines and isogenic SKOV3 lines. Put plainly: Viability with MTHFD2 inhibitor and uridine supplementation. As to conditions: uridine 50 μM supplementation. The protocol:
FIG. 15 Investigating metabolic consequence of Complex III impairment and activity of paralogous pathways other than oxidative MTHFD2. (a) Effect of MTHFD2 inhibitor ([…]) and uridine (50 μM) supplementation on viability of parental ovarian cancer lines that are UQCR11—intact (SKOV3) or UQCR11-null (HeyA8, OVCAR8, CAOV3). Data are representative of two independent experiments and presented as mean±s.d. (n=6). Data analyzed with one-way ANOVA with Tukey's correction for multiple comparisons. (b) Effect of MTHFD2 inhibitor and uridine supplementation on viability of isogenic SKOV3 lines expressing shScramble or shUQCR11. […] Data analyzed with one-way ANOVA with Tukey's correction for multiple comparisons. […] (n=6) and analyzed using two-tailed Student's t-test. (d) mRNA expression of NNT, IDH2, IDH3A measured via qRT-PCR after knocking down with shNNT, shIDH2, and shIDH3A, relative to scramble shRNA (shScr), verifying knockdown efficiency in SKOV3 and OVCAR8 cell-lines. […] Data analyzed using unpaired two-tailed Student's t-test. […] Data are analyzed using ordinary one-way ANOVA with multiple comparisons. […] Loss of viability calculated by comparing respective viability in vehicle control-treated cells to MTHFD2 inhibitor-treated cells. […] (n=6) and analyzed using ordinary one-way ANOVA with Dunnett's correction for multiple comparisons. Error bars are calculated using propagation of error principles.

The values below come from patent publication US20260018245A1, “SYSTEMS AND METHODS FOR IDENTIFYING AND TARGETING COLLATERAL LETHAL GENES” (The Regents of the University of Michigan, priority 2022, published 2026).

Turning to `C=C(C)[C@H]1Cc2c(ccc3c2O[C@@H]2COc4cc(OC)c(OC)cc4[C@@H]2C3=O)O1` [rotenone], the “oxidative MTHFD2 flux” value in experiment [1] is listed as “first increased with increasing, yet low, rotenone doses but returned to original levels as doses were further increased”. Moreover, the “reductive MTHFD2 flux” value in experiment [2] is recorded as “modest increase at low rotenone doses, which became most pronounced at the highest doses”. For the same compound, in the experiment with SKOV3 cells, the “basal OCR” value was “monotonic decrease”.
For the compound `O=c1ccn([C@@H]2O[C@H](CO)[C@@H](O)[C@H]2O)c(=O)[nH]1` [uridine], in experiment [3], the “rescue of cells from MTHFD2 inhibition” value is reported as “unable to rescue”.
